The results in this text go back to patent publication US20250382305A1 (PTC THERAPEUTICS, INC., priority 2022, published 2025).

One assay deals with ATXN3 pre-mRNA. Briefly: RT-qPCR Assay to Quantify Exon 4 Skipping in ATXN3 pre-mRNA in Cells. In kind it is cell-based. The conditions noted are these: percent exon 4 skipping in ATXN3 pre-mRNA, RT-qPCR of cell lysates; average IC50. The method in brief:
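Cells plated at 10,000/well onto a 7-point, 3.16-fold DMSO dilution series (duplicates), incubated 24 h at 37 °C, then lysed. Exon 4 skipping measured by one-step RT-qPCR (48 °C RT, 40 cycles); IC50 interpolated from dose-response fit of percent skipping.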
(In general: Real-time PCR tracks product formation cycle by cycle.)

In assay [1] the test system is Total ATXN3 (tATXN3) protein. Briefly: Endogenous Total ATXN3 (tATXN3) Protein Assay (MSD immunoassay of cell lysates). The format is cell-based. The conditions noted are these: average IC50, total ATXN3 protein in cell lysate after 48 h with compound (Table 1). The method in brief:
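Cells in DMEM/10% FBS were plated at 10,000 per well onto 7-point, 3.16-fold compound dilutions in duplicate for 48 h at 37° C, then lysed. Total ATXN3 in lysates was measured by MSD sandwich immunoassay: mouse anti-ATXN3 capture, rabbit anti-ATXN3 detection, SULFO-TAG anti-rabbit. Average IC50 was reported in star bins.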

Structures are written as SMILES.

For orientation: IC50 means the concentration at which inhibition is half-maximal. Take `C/C=C/CNc1cc(Cl)nc2c(Cl)c([C@H]3CC=CC[C@@H]3N)sc12` [Compound 302, 2-((1S,6S)-6-aminocyclohex-3-en-1-yl)-N-((E)-but-2-en-1-yl)-3,5-dichlorothieno[3,2-b]pyridin-7-amine]: the IC50 (in the assay with ATXN3 pre-mRNA; in assay [1]) was 30 to 300 nM each time.

For `CN[C@H]1CC=CC[C@@H]1c1sc2c(NCc3cccs3)cc(Cl)nc2c1C#CCCO` [Compound 303, 4-(5-chloro-2-((1S,6S)-6-(methylamino)cyclohex-3-en-1-yl)-7-((thiophen-2-ylmethyl)amino)thieno[3,2-b]pyridin-3-yl)but-3-yn-1-ol], the concentration for half-maximal inhibition (IC50) (in the assay on ATXN3 pre-mRNA; in assay [1]) was 30 to 300 nM each time.

Regarding `N[C@H]1CCCC[C@@H]1c1c(I)c2nc(Cl)nc(NCc3ccco3)c2n1C(F)F` [Compound 304, 6-((1S,2S)-2-aminocyclohexyl)-2-chloro-5-(difluoromethyl)-N-(furan-2-ylmethyl)-7-iodo-5H-pyrrolo[3,2-d]pyrimidin-4-amine], the concentration for half-maximal inhibition (IC50) (in the assay with ATXN3 pre-mRNA; in assay [1]) was 30 to 300 nM each time.

With `N[C@H]1CCCO[C@@H]1c1c(Cl)c2nc(Cl)nc(NCc3cccs3)c2n1C(F)F` [Compound 305, 6-((2S,3S)-3-aminotetrahydro-2H-pyran-2-yl)-2,7-dichloro-5-(difluoromethyl)-N-(thiophen-2-ylmethyl)-5H-pyrrolo[3,2-d]pyrimidin-4-amine], the half-maximal inhibitory concentration (IC50) (in the assay with ATXN3 pre-mRNA; in assay [1]) was 30 to 300 nM each time.

Regarding `CC#CCNc1cc(Cl)nc2c(C)c([C@H]3CC=CC[C@@H]3N)sc12` [Compound 306, 2-((1S,6S)-6-aminocyclohex-3-en-1-yl)-N-(but-2-yn-1-yl)-5-chloro-3-methylthieno[3,2-b]pyridin-7-amine], the half-inhibitory concentration (IC50) (with ATXN3 pre-mRNA; in assay [1]) was 30 to 300 nM each time.

As for `N[C@H]1CC=CC[C@@H]1c1sc2c(NCc3cccs3)cc(Cl)nc2c1C#Cc1cccnc1` [Compound 307, 2-((1S,6S)-6-aminocyclohex-3-en-1-yl)-5-chloro-3-(pyridin-3-ylethynyl)-N-(thiophen-2-ylmethyl)thieno[3,2-b]pyridin-7-amine], the 50% inhibitory concentration (IC50) (in the assay on ATXN3 pre-mRNA; in assay [1]) was 30 to 300 nM in each case.

On to `CC#CCNc1cc(Cl)nc2c(Cl)c([C@H]3CCCC[C@@H]3N)sc12` [Compound 308, 2-((1S,2S)-2-aminocyclohexyl)-N-(but-2-yn-1-yl)-3,5-dichlorothieno[3,2-b]pyridin-7-amine], for which the half-maximal inhibitory concentration (IC50) (with ATXN3 pre-mRNA; in assay [1]) was 30 to 300 nM each time.

In the case of `N[C@@H]1CC=CC[C@H]1c1sc2c(NCc3ccco3)cc(Cl)nc2c1Br` [Compound 310, 2-((1R,6R)-6-aminocyclohex-3-en-1-yl)-3-bromo-5-chloro-N-(furan-2-ylmethyl)thieno[3,2-b]pyridin-7-amine], the IC50 (in the assay with ATXN3 pre-mRNA; in assay [1]) was 30 to 300 nM each time.

In the case of `C#Cc1c([C@H]2CCCC[C@@H]2N)sc2c(NCc3ccccc3F)cc(Cl)nc12` [Compound 311, 2-((1S,2S)-2-aminocyclohexyl)-5-chloro-3-ethynyl-N-(2-fluorobenzyl)thieno[3,2-b]pyridin-7-amine], the IC50 (in the assay on ATXN3 pre-mRNA; in assay [1]) was 30 to 300 nM each time.

For the compound `Cc1c([C@H]2CC=C(C(=O)N(C)C)C[C@@H]2N)sc2c(NCc3cccs3)cc(Cl)nc12` [Compound 312, (4S,5S)-5-amino-4-(5-chloro-3-methyl-7-((thiophen-2-ylmethyl)amino)thieno[3,2-b]pyridin-2-yl)-N,N-dimethylcyclohex-1-ene-1-carboxamide], the 50% inhibitory concentration (IC50) (in the assay with ATXN3 pre-mRNA; in assay [1]) was 30 to 300 nM in each case.

Regarding `Cc1c([C@H]2CC=C(C(=O)N3CCOCC3)C[C@@H]2N)sc2c(NCc3cccs3)cc(Cl)nc12` [Compound 313, ((4S,5S)-5-amino-4-(5-chloro-3-methyl-7-((thiophen-2-ylmethyl)amino)thieno[3,2-b]pyridin-2-yl)cyclohex-1-en-1-yl)(morpholino)methanone], the half-maximal inhibitory concentration (IC50) (in the assay on ATXN3 pre-mRNA; in assay [1]) was 30 to 300 nM each time.

With `CC#Cc1c([C@@H]2CCCC[C@H]2N)n(C(F)F)c2c(NCc3ccco3)nc(Cl)nc12` [Compound 318, 6-((1R,2R)-2-aminocyclohexyl)-2-chloro-5-(difluoromethyl)-N-(furan-2-ylmethyl)-7-(prop-1-yn-1-yl)-5H-pyrrolo[3,2-d]pyrimidin-4-amine], the half-maximal inhibitory concentration (IC50) (in the assay with ATXN3 pre-mRNA; in assay [1]) was 30 to 300 nM in each case.

For `N[C@H]1CC=CC[C@@H]1c1sc2c(NCc3cccs3)cc(Cl)nc2c1C#CCCCCCO` [Compound 320, 7-(2-((1S,6S)-6-aminocyclohex-3-en-1-yl)-5-chloro-7-((thiophen-2-ylmethyl)amino)thieno[3,2-b]pyridin-3-yl)hept-6-yn-1-ol], the IC50 (with ATXN3 pre-mRNA; in assay [1]) was 30 to 300 nM in each case.

Consider `Cc1c([C@H]2COCC[C@@H]2N)sc2c(NCc3ccccc3)cc(Cl)nc12` [Compound 321, 2-((3R,4S)-4-aminotetrahydro-2H-pyran-3-yl)-N-benzyl-5-chloro-3-methylthieno[3,2-b]pyridin-7-amine], for which the IC50 (in the assay with ATXN3 pre-mRNA; in assay [1]) was 30 to 300 nM each time.

For `[2H]C1=C([2H])C([2H])([2H])[C@H](c2sc3c(NC([2H])([2H])c4ccccc4)cc(Cl)nc3c2C)[C@@H](N)C1([2H])[2H]` [Compound 322, 2-((1S,6S)-6-aminocyclohex-3-en-1-yl-2,2,3,4,5,5-d6)-5-chloro-3-methyl-N-(phenylmethyl-d2)thieno[3,2-b]pyridin-7-amine], the IC50 (with ATXN3 pre-mRNA; in assay [1]) was 30 to 300 nM throughout.

As to `N[C@@H]1CC=CC[C@H]1c1sc2c(NCc3ccco3)nc(Cl)nc2c1I` [Compound 323, 6-((1R,6R)-6-aminocyclohex-3-en-1-yl)-2-chloro-N-(furan-2-ylmethyl)-7-iodothieno[3,2-d]pyrimidin-4-amine], the IC50 (with ATXN3 pre-mRNA; in assay [1]) was 30 to 300 nM throughout.

Consider `N[C@H]1CC=CC[C@@H]1c1c(I)c2nc(Cl)cc(NCc3cccs3)c2n1C(F)F` [Compound 325, 2-((1S,6S)-6-aminocyclohex-3-en-1-yl)-5-chloro-1-(difluoromethyl)-3-iodo-N-(thiophen-2-ylmethyl)-1H-pyrrolo[3,2-b]pyridin-7-amine], for which the IC50 (in the assay with ATXN3 pre-mRNA; in assay [1]) was 30 to 300 nM throughout.

Regarding `Cc1c([C@H]2CC=CC[C@@H]2N)sc2c(NCc3ccccc3)nc(Cl)nc12` [Compound 326, 6-((1S,6S)-6-aminocyclohex-3-en-1-yl)-N-benzyl-2-chloro-7-methylthieno[3,2-d]pyrimidin-4-amine], the IC50 (in the assay with ATXN3 pre-mRNA; in assay [1]) was 30 to 300 nM in each case.

Regarding `N[C@@H]1CC=CC[C@H]1c1sc2c(NCc3ccco3)cc(Cl)nc2c1I` [Compound 327, 2-((1R,6R)-6-aminocyclohex-3-en-1-yl)-5-chloro-N-(furan-2-ylmethyl)-3-iodothieno[3,2-b]pyridin-7-amine], the IC50 (in the assay with ATXN3 pre-mRNA; in assay [1]) was 30 to 300 nM throughout.

As to `CC#Cc1c([C@H]2CCCC[C@@H]2N)n(C(F)F)c2c(NCc3ccco3)nc(Cl)nc12` [Compound 331, 6-((1S,2S)-2-aminocyclohexyl)-2-chloro-5-(difluoromethyl)-N-(furan-2-ylmethyl)-7-(prop-1-yn-1-yl)-5H-pyrrolo[3,2-d]pyrimidin-4-amine], the IC50 (with ATXN3 pre-mRNA; in assay [1]) was 30 to 300 nM throughout.

Consider `CN(Cc1ccco1)c1cc(Cl)nc2c(C#CCCCO)c([C@H]3CC=CC[C@@H]3N)sc12` [Compound 336, 5-(2-((1S,6S)-6-aminocyclohex-3-en-1-yl)-5-chloro-7-((furan-2-ylmethyl)(methyl)amino)thieno[3,2-b]pyridin-3-yl)pent-4-yn-1-ol], for which the IC50 (in the assay on ATXN3 pre-mRNA; in assay [1]) was 30 to 300 nM each time.

For the compound `N[C@H]1COCC[C@@H]1c1sc2c(NCc3nccs3)cc(Cl)nc2c1Cl` [Compound 337, 2-((3R,4S)-3-aminotetrahydro-2H-pyran-4-yl)-3,5-dichloro-N-(thiazol-2-ylmethyl)thieno[3,2-b]pyridin-7-amine], the IC50 (in the assay with ATXN3 pre-mRNA; in assay [1]) was 30 to 300 nM throughout.

As for `Cc1c([C@@H]2[C@@H](N)CCCC2(F)F)sc2c(NCc3cccs3)cc(Cl)nc12` [Compound 338, 2-((1R,6S)-6-amino-2,2-difluorocyclohexyl)-5-chloro-3-methyl-N-(thiophen-2-ylmethyl)thieno[3,2-b]pyridin-7-amine], the IC50 (in the assay on ATXN3 pre-mRNA; in assay [1]) was 30 to 300 nM in each case.

As to `N[C@H]1CC=CC[C@@H]1c1sc2c(NCc3nccs3)nc(Cl)nc2c1Cl` [Compound 340, 6-((1S,6S)-6-aminocyclohex-3-en-1-yl)-2,7-dichloro-N-(thiazol-2-ylmethyl)thieno[3,2-d]pyrimidin-4-amine], the concentration for half-maximal inhibition (IC50) (with ATXN3 pre-mRNA; in assay [1]) was 30 to 300 nM in each case.

For `Cc1c([C@H]2CC=CC[C@@H]2N)sc2c(NCc3ccccc3F)cc(Cl)nc12` [Compound 341, 2-((1S,6S)-6-aminocyclohex-3-en-1-yl)-5-chloro-N-(2-fluorobenzyl)-3-methylthieno[3,2-b]pyridin-7-amine], the concentration for half-maximal inhibition (IC50) (in the assay with ATXN3 pre-mRNA; in assay [1]) was 30 to 300 nM each time.

For the compound `CC#CCNc1cc(Cl)nc2c(Br)c([C@H]3OCCC[C@@H]3N)sc12` [Compound 343, 2-((2S,3S)-3-aminotetrahydro-2H-pyran-2-yl)-3-bromo-N-(but-2-yn-1-yl)-5-chlorothieno[3,2-b]pyridin-7-amine], the IC50 (with ATXN3 pre-mRNA; in assay [1]) was 30 to 300 nM in each case.

Turning to `C#Cc1c([C@@H]2CCCC[C@H]2N)sc2c(NCc3ccccc3)cc(Cl)nc12` [Compound 344, 2-((1R,2R)-2-aminocyclohexyl)-N-benzyl-5-chloro-3-ethynylthieno[3,2-b]pyridin-7-amine], the half-maximal inhibitory concentration (IC50) (with ATXN3 pre-mRNA; in assay [1]) was 30 to 300 nM in each case.
